Data taken from PMC12730222, “The Adaptable Binding Cleft of RmuAP1, a Pepsin-like Peptidase from Rhodotorula mucilaginosa, Enables the Enzyme to Degrade Immunogenic Peptides Derived from Gluten” (Biomolecules, 2025).
Non-standard residues stand in square brackets, D forms with d. Residues, ends and D or L forms follow the SMILES beside them. *: point of attachment. Sta = CC(C)C[C@H](N)[C@@H](O)CC(=O)O; Isovaleryl = CC(C)CC(=O)*

Biological target: T1, RmuAP1 (Rhodotorula mucilaginosa, UniProt A0A9P6W3R0)
T1 construct: gene PEP1_2; mature catalytic domain (printed as 300 residues, though residue Ile304 is named), pre- and propeptide removed, C-terminal His6; secreted by Yarrowia lipolytica Po1g
T1 sequence (A0A9P6W3R0 96-425): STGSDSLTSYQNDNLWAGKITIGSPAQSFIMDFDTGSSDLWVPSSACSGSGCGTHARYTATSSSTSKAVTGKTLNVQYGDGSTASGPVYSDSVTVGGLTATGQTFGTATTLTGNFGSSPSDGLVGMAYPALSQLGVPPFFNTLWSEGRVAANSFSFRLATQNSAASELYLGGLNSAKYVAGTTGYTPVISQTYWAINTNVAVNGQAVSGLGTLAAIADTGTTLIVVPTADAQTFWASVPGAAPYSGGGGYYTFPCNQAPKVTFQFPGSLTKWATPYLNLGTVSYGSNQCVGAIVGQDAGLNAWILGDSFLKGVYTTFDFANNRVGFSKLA
Experiment: X-ray crystal structure of the complex, […] Å
Format: binding
Details: crystallised at pH 6.5, 2 M NaCl, 20 °C; active-site cleft, subsites S4 to S2'

CC(C)CC(=O)N[C@H](C(=O)N[C@H](C(=O)N[C@@H](CC(C)C)[C@@H](O)CC(=O)N[C@@H](C)C(=O)N[C@@H](CC(C)C)[C@@H](O)CC(=O)O)C(C)C)C(C)C [pepstatin A] (Isovaleryl-VV[Sta]A[Sta]-OH)
X-ray crystal structure of the complex, 1.78 Å: The crystal structure of the RmuAP1 complexed with pepstatin A was determined
